Results as given in PubChem BioAssay (NCI).
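Compound exposure: 48 hours, 5 concentrations, 96-well plates. Abbreviation: GI50, concentration required for 50% inhibition of growth. TGI: total growth inhibition.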

How the values were obtained:
Test in all cases: growth of human tumour cells (NCI), 48 h
HS 578T breast = tested on: HS 578T breast
BT-549 breast = tested on: BT-549 breast
SN12C renal = tested on: SN12C renal
NCI-H23 lung = tested on: NCI-H23 lung
NCI-H460 lung = tested on: NCI-H460 lung
KM12 colon = tested on: KM12 colon
MOLT-4 leukemia = tested on: MOLT-4 leukemia
HCC-2998 colon = tested on: HCC-2998 colon
UO-31 renal = tested on: UO-31 renal
SR leukemia = tested on: SR leukemia

COc1cc(C(=O)O[C@H](C(=O)NCCCCCNC(=O)[C@@H](OC(=O)c2cc(OC)cc3c(C)cccc23)[C@]2(C)CO2)[C@]2(C)CO2)c2cccc(C)c2c1
GI50 (HS 578T breast): 0.943 µM | TGI (HS 578T breast): 6.51 µM | GI50 (BT-549 breast): 1.13 µM | TGI (BT-549 breast): 5.8 µM | GI50 (SN12C renal): 0.364 µM | TGI (SN12C renal): 1.15 µM | GI50 (NCI-H23 lung): 0.179 µM | TGI (NCI-H23 lung): 0.665 µM | TGI (NCI-H460 lung): 0.675 µM | GI50 (KM12 colon): 0.5 µM | TGI (KM12 colon): 1.41 µM | GI50 (MOLT-4 leukemia): < 0.01 µM | TGI (MOLT-4 leukemia): > 100 µM | GI50 (HCC-2998 colon): 0.254 µM | TGI (HCC-2998 colon): 3.55 µM | GI50 (UO-31 renal): 2.24 µM | TGI (UO-31 renal): > 100 µM

COc1cc(NC(C)CCCNC2CN3CCC2CC3)c2ncccc2c1 (stereo not given)
GI50 (HS 578T breast): 14.8 µM | TGI (HS 578T breast): 39.6 µM | GI50 (BT-549 breast): 14.8 µM | TGI (BT-549 breast): 29.3 µM | GI50 (SN12C renal): 14.1 µM | TGI (SN12C renal): 29.4 µM | GI50 (NCI-H23 lung): 13.8 µM | TGI (NCI-H23 lung): 29.6 µM | GI50 (NCI-H460 lung): 15.9 µM | TGI (NCI-H460 lung): 32.3 µM | GI50 (KM12 colon): 14.6 µM | TGI (KM12 colon): 29.1 µM | GI50 (MOLT-4 leukemia): 12.8 µM | TGI (MOLT-4 leukemia): 31.8 µM | GI50 (HCC-2998 colon): 11.1 µM | TGI (HCC-2998 colon): 24.8 µM | GI50 (UO-31 renal): 13.7 µM | TGI (UO-31 renal): 32.6 µM

CCOc1ccc2c(c1)[n+]([O-])c(-c1ccc(Cl)cc1)c(N)[n+]2[O-]
TGI (SN12C renal): > 100 µM | TGI (NCI-H23 lung): > 100 µM | TGI (NCI-H460 lung): > 100 µM | TGI (KM12 colon): > 100 µM | TGI (MOLT-4 leukemia): > 100 µM | TGI (SR leukemia): > 100 µM | TGI (UO-31 renal): > 100 µM

COc1ccc2c(c1)c(=O)oc1cc(OC/C(C)=N\O)ccc12
GI50 (HS 578T breast): 27.6 µM | TGI (HS 578T breast): > 100 µM | GI50 (BT-549 breast): 49.2 µM | TGI (BT-549 breast): > 100 µM | GI50 (SN12C renal): > 100 µM | TGI (SN12C renal): > 100 µM | GI50 (NCI-H23 lung): > 100 µM | TGI (NCI-H23 lung): > 100 µM | GI50 (NCI-H460 lung): > 100 µM | TGI (NCI-H460 lung): > 100 µM | GI50 (KM12 colon): > 100 µM | TGI (KM12 colon): > 100 µM | GI50 (MOLT-4 leukemia): > 100 µM | TGI (MOLT-4 leukemia): > 100 µM | GI50 (HCC-2998 colon): > 100 µM | TGI (HCC-2998 colon): > 100 µM | GI50 (UO-31 renal): 33.3 µM | TGI (UO-31 renal): > 100 µM

COc1cc([N+](=O)[O-])c(OC)cc1-c1nc2sc(Cl)cn2c1/C(N)=N/C(=N)N
GI50 (HS 578T breast): 2.72 µM | TGI (HS 578T breast): 6.8 µM | GI50 (BT-549 breast): 11.4 µM | TGI (BT-549 breast): 47.5 µM | GI50 (SN12C renal): 1.91 µM | TGI (SN12C renal): 4.29 µM | GI50 (NCI-H23 lung): 3.43 µM | TGI (NCI-H23 lung): 10.8 µM | GI50 (NCI-H460 lung): 16.1 µM | TGI (NCI-H460 lung): 46.7 µM | GI50 (KM12 colon): 2.75 µM | TGI (KM12 colon): 9.16 µM | GI50 (MOLT-4 leukemia): 3.09 µM | TGI (MOLT-4 leukemia): > 100 µM | GI50 (HCC-2998 colon): 1.99 µM | TGI (HCC-2998 colon): 4.15 µM | GI50 (UO-31 renal): 26.2 µM | TGI (UO-31 renal): > 61.8 µM

COc1ccc(C2=CC(c3ccc4c(c3)OCO4)c3c(c4ccccc4oc3=O)O2)cc1OC (stereo not given)
TGI (HS 578T breast): > 25.6 µM | TGI (BT-549 breast): > 100 µM | TGI (SN12C renal): > 100 µM | TGI (NCI-H23 lung): > 100 µM | TGI (NCI-H460 lung): > 100 µM | TGI (KM12 colon): > 100 µM | TGI (MOLT-4 leukemia): > 100 µM | TGI (HCC-2998 colon): > 27.2 µM | TGI (UO-31 renal): > 100 µM

CN1C(=Nc2ccccc2)SC1=Nc1ccccc1
TGI (NCI-H23 lung): > 100 µM | TGI (NCI-H460 lung): > 100 µM | TGI (KM12 colon): > 100 µM | TGI (MOLT-4 leukemia): > 100 µM | TGI (HCC-2998 colon): > 100 µM | TGI (SR leukemia): > 100 µM | TGI (UO-31 renal): > 100 µM

CCOc1ccccc1N1C(=O)C(=O)C(c2nc3ccccc3o2)C(=O)C1=O
TGI (SN12C renal): > 100 µM | TGI (NCI-H23 lung): > 100 µM | TGI (MOLT-4 leukemia): > 100 µM | TGI (HCC-2998 colon): > 100 µM | TGI (SR leukemia): > 100 µM | TGI (UO-31 renal): > 100 µM

COc1ccc2n[se]nc2c1
TGI (SN12C renal): > 100 µM | TGI (NCI-H23 lung): > 100 µM | TGI (KM12 colon): > 100 µM | TGI (MOLT-4 leukemia): > 100 µM | TGI (HCC-2998 colon): > 100 µM | TGI (UO-31 renal): > 100 µM

CN(C)CC/C(=N\Nc1ccc([N+](=O)[O-])cc1)c1ccccc1
TGI (SN12C renal): 23.8 µM | TGI (NCI-H23 lung): 27.1 µM | TGI (NCI-H460 lung): 21.3 µM | TGI (KM12 colon): 22.3 µM | TGI (MOLT-4 leukemia): 24.5 µM | TGI (SR leukemia): 17.2 µM | TGI (UO-31 renal): 6.02 µM

Cc1ccc2nc(NC(=O)C(=O)C(C#N)c3nc4ccccc4s3)sc2c1 (stereo not given)
TGI (SN12C renal): > 100 µM | TGI (NCI-H23 lung): 83.9 µM | TGI (NCI-H460 lung): > 100 µM | TGI (KM12 colon): > 100 µM | TGI (MOLT-4 leukemia): 51.4 µM | TGI (HCC-2998 colon): > 100 µM | TGI (UO-31 renal): > 100 µM

CCC[CH2][Sn]1([CH2]CCC)[O]C(=O)c2cccnc2[O]1
GI50 (SN12C renal): 2.58 µM | TGI (SN12C renal): 8.79 µM | GI50 (NCI-H23 lung): 1.33 µM | TGI (NCI-H23 lung): 2.99 µM | GI50 (NCI-H460 lung): 13.3 µM | TGI (NCI-H460 lung): 26 µM | GI50 (KM12 colon): 4.6 µM | TGI (KM12 colon): 17.6 µM | GI50 (MOLT-4 leukemia): 2.09 µM | TGI (MOLT-4 leukemia): 5.96 µM | GI50 (HCC-2998 colon): 3.76 µM | TGI (HCC-2998 colon): 14.6 µM | GI50 (SR leukemia): 1.65 µM | TGI (SR leukemia): 6.19 µM | GI50 (UO-31 renal): 7.32 µM | TGI (UO-31 renal): 19.9 µM

CN(CCCn1c2c(c3ccccc3c1=O)C(=O)c1ccccc1-2)CCCn1c2c(c3ccccc3c1=O)C(=O)c1ccccc1-2
GI50 (HS 578T breast): 2.67 µM | TGI (HS 578T breast): > 100 µM | GI50 (BT-549 breast): 22 µM | TGI (BT-549 breast): 83.1 µM | GI50 (NCI-H23 lung): 0.249 µM | TGI (NCI-H23 lung): 5.25 µM | GI50 (NCI-H460 lung): 0.242 µM | TGI (NCI-H460 lung): > 100 µM | GI50 (KM12 colon): 0.15 µM | TGI (KM12 colon): 1.05 µM | TGI (MOLT-4 leukemia): 1.06 µM | GI50 (HCC-2998 colon): 0.385 µM | TGI (HCC-2998 colon): 9.46 µM | GI50 (UO-31 renal): 1.42 µM | TGI (UO-31 renal): 6.26 µM

COc1cc(/C=C2/C(=O)N(C(=O)OCC(C)C)C(Cc3cc(OC)c(OC)c(C)c3OC)C(=O)N2Cc2ccccc2)c(OC)c(C)c1OC (stereo not given)
TGI (SN12C renal): > 100 µM | TGI (NCI-H23 lung): > 100 µM | TGI (NCI-H460 lung): > 100 µM | TGI (KM12 colon): > 100 µM | TGI (MOLT-4 leukemia): > 100 µM | TGI (HCC-2998 colon): > 100 µM | TGI (SR leukemia): > 100 µM | TGI (UO-31 renal): > 100 µM

O=C1Nc2ccccc2/C1=C/C(=O)c1coc2c1C(=O)c1ccccc1C2=O
GI50 (HS 578T breast): > 100 µM | TGI (HS 578T breast): > 100 µM | GI50 (SN12C renal): > 100 µM | TGI (SN12C renal): > 100 µM | GI50 (NCI-H23 lung): > 100 µM | TGI (NCI-H23 lung): > 100 µM | GI50 (NCI-H460 lung): > 100 µM | TGI (NCI-H460 lung): > 100 µM | GI50 (KM12 colon): > 100 µM | TGI (KM12 colon): > 100 µM | GI50 (MOLT-4 leukemia): 62.3 µM | TGI (MOLT-4 leukemia): > 100 µM | GI50 (HCC-2998 colon): > 100 µM | TGI (HCC-2998 colon): > 100 µM | GI50 (SR leukemia): 80.4 µM | TGI (SR leukemia): > 100 µM | GI50 (UO-31 renal): 70.4 µM | TGI (UO-31 renal): > 100 µM

CC(C)(C)c1ccc(Oc2nccc(-c3c(-c4ccc(F)cc4)ncn3C3CCNCC3)n2)cc1
GI50 (HS 578T breast): 5.1 µM | TGI (HS 578T breast): 13.1 µM | GI50 (BT-549 breast): 4.1 µM | TGI (BT-549 breast): 7.6 µM | GI50 (SN12C renal): 3.65 µM | TGI (SN12C renal): 7.06 µM | GI50 (NCI-H460 lung): 3.91 µM | TGI (NCI-H460 lung): 8.21 µM | GI50 (KM12 colon): 3.95 µM | TGI (KM12 colon): 7.61 µM | GI50 (MOLT-4 leukemia): 2.93 µM | TGI (MOLT-4 leukemia): 7.13 µM | GI50 (HCC-2998 colon): 1.38 µM | TGI (HCC-2998 colon): 4.98 µM | GI50 (UO-31 renal): 2.61 µM | TGI (UO-31 renal): 6.61 µM

O=C(O)CNC(=O)c1ccc(-c2ccccc2)cc1
TGI (HS 578T breast): > 100 µM | TGI (SN12C renal): > 100 µM | TGI (NCI-H23 lung): > 100 µM | TGI (NCI-H460 lung): > 100 µM | TGI (KM12 colon): > 100 µM | TGI (MOLT-4 leukemia): > 100 µM | TGI (HCC-2998 colon): > 100 µM | TGI (SR leukemia): > 100 µM | TGI (UO-31 renal): > 100 µM

COc1cc(/C=C/C(=O)c2cccc(Nc3nc(Nc4ccccc4)nc(Nc4ccccc4)n3)c2)cc(OC)c1OC
GI50 (HS 578T breast): 4.83 µM | TGI (HS 578T breast): > 54.4 µM | GI50 (BT-549 breast): 8.36 µM | TGI (BT-549 breast): > 100 µM | GI50 (SN12C renal): 20.7 µM | TGI (SN12C renal): > 100 µM | GI50 (NCI-H23 lung): 6.07 µM | TGI (NCI-H23 lung): > 100 µM | GI50 (NCI-H460 lung): 2.05 µM | TGI (NCI-H460 lung): 20.9 µM | GI50 (KM12 colon): 3.71 µM | TGI (KM12 colon): > 87.9 µM | GI50 (MOLT-4 leukemia): 1.07 µM | TGI (MOLT-4 leukemia): 4.38 µM | GI50 (HCC-2998 colon): 5.5 µM | TGI (HCC-2998 colon): 53.1 µM | GI50 (UO-31 renal): 5.15 µM | TGI (UO-31 renal): > 100 µM
